In patent US20070225242A1, “Method and composition for treating and preventing tumor metastasis in vivo” (The Board of Trustees of the Leland Stanford Junior …, priority 2005, published 2007):

Experiments:
[1] = test system: fibronectin null mouse embryonic fibroblasts; experiment: In vitro invasion of fibronectin null cells; type: cell-based
Protocol: FIG. 8 is a graph (A) showing fibronectin null mouse embryonic fibroblasts subjected to in vitro invasion assays; untreated invasion was compared with that of cells transfected with LOX antisense oligos (Antisense) or incubated with BAPN, and (B) Adhesion of SiHa cells expressing DSRED to matrix was assessed over time.
A role for fibronectin (FN) was sought, because it was strongly associated with LOX expression in the breast cancer microarray data set that was analyzed (data not shown), is reported to regulate invasion, bind to integrins and interact with LOX, and is hypoxia induced. […] FAK phosphorylation could be induced in the cells expressing LOX shRNA by transfection with mature LOX (but not catalytically dead LOX), confirming a role for LOX in FAK phosphorylation. […] It is proposed here that this is because LOX increases fibrillar collagen, which is a ligand for b1 integrin. Other integrin pathways have been reported to mediate hypoxia-induced invasion.

MMP-2 = experiment: MMP gelatin zymography of RAW macrophages incubated with conditioned media; type: cell-based; conditions: BMDCs incubated 24 h with CM from hypoxic Wt cells
Protocol: We examined changes in BMDC MMP activity induced by CM (FIG. 21C). MMP-9 activity was not affected by LOX or FN alone, but was elevated in CM supplemented with FN regardless of LOX status. This is consistent with our finding that FN has a stronger influence than LOX on BMDC migration.
Gelatin enzymography was performed to assess MMP activity as described. Protein concentrations were quantified to ensure equal loading.

LOX [2] = experiment: LOX fluorescent activity assay, in vivo (plasma of treated tumor-bearing mice); conditions: BAPN-treated and antibody-treated mice, terminal bleeds
Text: (§1) LOX activity may be measured in a number of ways, using a soluble elastin or soluble collagen with labeled lysine as a substrate. Details of an activity assay are given in Royce et al., “Copper metabolism in mottled mouse mutants. The effect of copper therapy on lysyl oxidase activity in brindled (Mobr) mice,” Biochem J. 1982 Feb. 15; 202(2): 369-371. Especially preferred is a […] assay. One is described in Palamakumbura, et al. “A fluorometric assay for detection of lysyl oxidase enzyme activity in biological samples,” Anal Biochem. 2002 Jan. 15; 300(2):245-51. This method was used in the present work to assess LOX inhibition by BAPN and by anti-LOX antibody in cells in culture (using conditioned media) and in mice (using plasma), in a 96-well format.
(§2) LOX activity assay. The original method is described in Folgelgren, et al. J. Biol. Chem. 280:24690-24697 (2005). For the in vivo data, terminal bleeds were taken at the end of the experiment described above from untreated (control) mice, 2 and 3 wk BAPN mice, and antibody-treated mice. […] For the in vitro data, 50 μl of conditioned phenol-red-free medium was taken from cells incubated for 24 h under conditions of hypoxia. Samples were incubated overnight at 37° C. with different concentrations of BAPN or with purified LOX antibody at a concentration equivalent to 20 mg kg^−1 dose. Again, 0=fluorescent reading for 500 μM BAPN.

lung and bone metastases = experiment: Lung and bone metastases in treated mice (FIG. 17); type: in vivo; conditions: FIGS. 17A-D
Protocol: FIGS. 17A-C are pictures of lungs from mice which were treated and untreated with LOX shRNA, a LOX antibody or BAPN, showing the effect of LOX treatment on metastases in lung.
FIGS. 17A-C are pictures of lungs from mice which were treated and untreated with LOX shRNA, the LOX antibody in Example 7 or BAPN, showing the effect of LOX treatment on metastases in lung.

human cancer cells = experiment: Cell viability; type: cell-based; conditions: data not shown
MDA-MB 231 cells = MDA-MB 231 cells grown as orthotopic tumors in nude mice; lung and liver metastases
Protocol: In addition, MDA231 cells were grown as orthotopic tumors in nude mice. […] In FIGS. 5 A and B, data were obtained by microscopic quantification of metastases in lungs and livers stained with hematoxylin and eosin. […] 4 wk BAPN represents treatment started at week 4, etc.
To evaluate the therapeutic usefulness of inhibiting LOX, mice with control MDA231 tumors were treated with β-aminoproprionitrile (BAPN), a specific and irreversible inhibitor of LOX enzymatic activity. […] In FIG. 5C, metastases were counted weekly over six weeks for ten sections (n=5 mice). Solid line, with circles control lung; dashed line with triangles, control liver; solid line with squares, BAPN lung; dashed line with squares, BAPN liver. BAPN was started at week 2. Antibody doses: unlabelled, 20 mg kg^−1; asterisk, 4 mg kg^−1; two asterisks, 1 mg kg^−1. Control, n=10; LOX shRNA, n=10; 4 wk BAPN, n=10; 3 wk BAPN, n=3; 2 wk BAPN, n=3; LOX antibody, n=5. Treatment details are given in Methods.
MDA-MB 231 cells were grown as subcutaneous orthotopic tumors in 6-week-old female Nude (nu/nu) mice following intradermal injection of 1×10^7 cells in 0.1 ml of PBS into the mammary fat pad. Mice were sacrificed and tumors excised six weeks after inoculation. […] Lung and liver metastases were defined as gross lesions of at least 25 cells.

LOX [3] = target: T1, LOX (Homo sapiens, UniProt P28300); experiment: LOX fluorescent activity assay, in vitro (conditioned medium from hypoxic cells); type: biochemical; conditions: 500 μM BAPN, set as 0 fluorescence
T1 construct: endogenous in cells; host or cells: Hypoxic cancer cells
T1 sequence (P28300 169-417): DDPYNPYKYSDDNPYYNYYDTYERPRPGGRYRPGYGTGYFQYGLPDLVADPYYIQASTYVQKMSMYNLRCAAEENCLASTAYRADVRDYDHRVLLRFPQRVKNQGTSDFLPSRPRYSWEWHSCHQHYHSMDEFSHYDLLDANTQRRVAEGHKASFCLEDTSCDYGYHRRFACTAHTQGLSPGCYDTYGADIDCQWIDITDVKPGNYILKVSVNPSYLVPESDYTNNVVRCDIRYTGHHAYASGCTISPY
Text: as §1, §2

[4] = BAPN 100 mg kg-1 daily i.p. or antibody 20 mg kg-1 twice weekly, control MDA231 tumors

With `N#CCCN` [BAPN, β-aminoproprionitrile] the “invasion of FN-null cells” value [1] was “strongly inhibited invasion (similarly to BAPN addition)”, the MMP-2 activity (MMP-2) was “reduced” and the “LOX activity levels in the blood” value (LOX [2]) was “Reduced LOX activity levels”. The “lung and bone metastases” value (lung and bone metastases) was “either stabilized disease or regression of lung and bone metastases”, the cell viability (human cancer cells) was “Neither treatment with BAPN nor treatment with BCS affected cell viability” and the “effect on metastatic tumors already formed” value (MDA-MB 231 cells; 4 wk BAPN, treatment started at week 4) was “eliminated tumors that had formed”. For the same compound, the liver metastases (MDA-MB 231 cells; [4]) was “did not have any lung metastases or liver metastases”, the lung metastases (MDA-MB 231 cells; [4]) was “did not have any lung metastases” and the “metastatic lesions formed in orthotopic studies” value (MDA-MB 231 cells; BAPN treated mice) was “completely absent”. For the same compound, the deleterious side effects (MDA-MB 231 cells; antibody up to 20 mg kg-1 twice weekly, BAPN 100 mg kg-1 daily i.p. for four, three or two weeks) was “no deleterious side effects”, the primary tumor growth (MDA-MB 231 cells; inhibition of LOX with shRNA, BAPN or antibody) was “slight effect on primary tumor growth” and the “invasion of primary tumors” value (MDA-MB 231 cells; primary tumors from treated mice or tumors expressing LOX shRNA) was “showed evidence of invasion”. The liver metastases (MDA-MB 231 cells; reduced antibody doses (4, 1 mg kg-1) or reduced periods of BAPN treatment) was “no liver metastases”, the lung metastases (MDA-MB 231 cells; reduced antibody doses (4, 1 mg kg-1) or reduced periods of BAPN treatment, even when metastases had already formed) was “significantly fewer lung metastases” and the LOX inhibition (LOX [3]) was “complete LOX inhibition”.
